Legend:
Solubility in water = settings: normal temperature
male C3H/HeN Sic mice = assay: Hair regrowth promotion test using mouse; assay type: in vivo; settings: after 20 days
Method: 15 male C3H/HeN Sic 7-week old mice in the resting stage of the hair cycle had their hair at the back part shorn off carefully with an electric hair clipper and an electric shaver. These mice were divided into three groups each containing 5 mice. To the skin of the shorn part of each mouse in one group, 0.1 ml of a test sample shown in the following Table 4 was applied once a day, and to the skin of the shorn part of each mouse in another group, a base was applied in the same amount. The residual group in which nothing had been applied was regarded as an untreated control.
After 20 days from the beginning of the experiments, the back part of each mouse was photographed. By the use of an image analyzing software (Image-J), a ratio of the area where the hair had regrown to the whole area of the hair shorn part was calculated, and the resulting ratio was regarded as a hair regrowth ratio. The hair regrowth ratio of each mouse was calculated, and statistical analysis of the hair regrowth ratio of each group was carried out. The results are shown in FIG. 1 and the following Table 5.

Row | Molecule | solubility in water (Solubility in water) | Hair regrowth ratio (%) Average (male C3H/HeN Sic mice; 0.1 ml once a day on shorn back skin, in Macrogol 400:Macrogol 4000 = 9:1 base, n=5) [%] | hair regrowth ratio (in words) (male C3H/HeN Sic mice; test sample group)
1 | COC1=C(OC)C(=O)C(C/C=C(\C)CC/C=C(\C)CC/C=C(\C)CC/C=C(\C)CC/C=C(\C)CC/C=C(\C)CC/C=C(\C)CC/C=C(\C)CC/C=C(\C)CCC=C(C)C)=C(C)C1=O [ubiquinone] | less than 100 ppm | – | –
2 | tetrapotassium ubiquinol-1,4-diphosphate | – | 58.45 | tendency of enhancement

Reference: patent publication US20100322887A1, “HAIR NOURISHING COSMETIC” (SHOWA DENKO K.K., priority 2008, published 2010)
